Where a SMILES comes first, the peptide text is derived from it. [ ]: non-standard residue; d: D form. Ahx = NCCCCCC(=O)O
What was measured:
[1] = target: T1, hY5-receptor (Homo sapiens, UniProt Q15761); assay: Radioligand displacement binding on transfected BHK membranes
T1 sequence (Q15761 1-445): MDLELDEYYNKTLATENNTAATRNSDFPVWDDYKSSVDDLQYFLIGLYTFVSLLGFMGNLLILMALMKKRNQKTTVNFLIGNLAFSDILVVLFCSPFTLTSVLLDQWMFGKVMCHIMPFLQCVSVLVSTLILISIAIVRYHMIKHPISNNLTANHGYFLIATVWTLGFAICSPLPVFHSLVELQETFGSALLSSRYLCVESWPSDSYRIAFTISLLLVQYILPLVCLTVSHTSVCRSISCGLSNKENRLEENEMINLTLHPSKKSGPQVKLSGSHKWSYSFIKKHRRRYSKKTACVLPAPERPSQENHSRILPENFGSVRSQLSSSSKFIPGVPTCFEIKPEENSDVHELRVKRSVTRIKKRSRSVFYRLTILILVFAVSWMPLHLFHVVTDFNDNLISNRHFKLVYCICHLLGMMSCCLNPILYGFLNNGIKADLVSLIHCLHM

[2] = target: T2, hY1-receptor (Homo sapiens, UniProt P25929); assay: Radioligand displacement binding on SK-N-MC membranes
T2 sequence (P25929 1-384): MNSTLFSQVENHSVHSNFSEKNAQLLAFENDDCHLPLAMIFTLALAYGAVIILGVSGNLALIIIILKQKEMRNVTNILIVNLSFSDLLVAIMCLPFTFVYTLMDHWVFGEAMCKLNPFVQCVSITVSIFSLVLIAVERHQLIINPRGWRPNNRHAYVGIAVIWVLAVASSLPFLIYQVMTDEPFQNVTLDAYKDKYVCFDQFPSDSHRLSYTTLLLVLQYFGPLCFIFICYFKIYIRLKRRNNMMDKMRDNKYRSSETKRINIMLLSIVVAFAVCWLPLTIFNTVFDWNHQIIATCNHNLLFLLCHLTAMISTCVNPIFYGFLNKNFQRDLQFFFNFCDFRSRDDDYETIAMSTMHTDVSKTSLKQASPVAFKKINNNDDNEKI

[3] = target: hY4-receptor (Homo sapiens, UniProt P50391); assay: Radioligand displacement binding on transfected BHK membranes
hY4-receptor, sequence (P50391 whole entry): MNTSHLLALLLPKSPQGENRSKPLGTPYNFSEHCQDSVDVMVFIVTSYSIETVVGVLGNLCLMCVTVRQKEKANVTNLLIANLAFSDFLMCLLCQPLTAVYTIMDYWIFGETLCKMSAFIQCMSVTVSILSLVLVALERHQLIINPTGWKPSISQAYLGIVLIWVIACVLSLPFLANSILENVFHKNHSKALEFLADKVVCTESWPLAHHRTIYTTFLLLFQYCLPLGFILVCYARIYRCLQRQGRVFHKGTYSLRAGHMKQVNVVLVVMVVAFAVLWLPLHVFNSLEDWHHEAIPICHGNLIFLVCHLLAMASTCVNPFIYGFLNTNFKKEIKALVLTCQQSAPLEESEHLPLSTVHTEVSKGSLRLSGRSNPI

[4] = target: T3, hY2-receptor (Homo sapiens, UniProt P49146); assay: Radioligand displacement binding on SMS-KAN membranes
T3 sequence (P49146 1-381): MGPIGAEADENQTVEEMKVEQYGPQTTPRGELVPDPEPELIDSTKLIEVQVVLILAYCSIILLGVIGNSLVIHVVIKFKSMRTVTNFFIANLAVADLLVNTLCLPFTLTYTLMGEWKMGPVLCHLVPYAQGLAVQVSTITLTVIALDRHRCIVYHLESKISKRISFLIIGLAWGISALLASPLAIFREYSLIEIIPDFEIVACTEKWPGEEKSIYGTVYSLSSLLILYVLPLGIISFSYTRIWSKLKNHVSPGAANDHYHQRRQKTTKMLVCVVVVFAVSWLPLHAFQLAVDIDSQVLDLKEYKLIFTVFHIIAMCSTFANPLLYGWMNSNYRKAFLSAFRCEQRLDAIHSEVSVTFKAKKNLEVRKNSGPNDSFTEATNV

Row | Compound | IC50 [1] | IC50 [2] | IC50 [3] | IC50 [4]
1 | CC[C@H](C)[C@H](NC(=O)[C@H](Cc1ccc(O)cc1)NC(=O)[C@H](CCCNC(=N)N)NC(=O)[C@H](CCCNC(=N)N)NC(=O)[C@H](CC(C)C)NC(=O)[C@H](CC(=O)O)NC(=O)[C@H](C)NC(=O)[C@H](C)NC(=O)CCCCCNC(=O)[C@H](CCC(=O)O)NC(=O)[C@H](CC(C)C)NC(=O)[C@@H]1CCCN1C(=O)[C@H](C)N)C(=O)N[C@@H](CC(N)=O)C(=O)N[C@@H](CCSC)C(=O)N[C@@H](CC(C)C)C(=O)N[C@H](C(=O)N[C@@H](CCCNC(=N)N)C(=O)N1CCC[C@H]1C(=O)N[C@@H](CCCNC(=N)N)C(=O)N[C@@H](Cc1ccc(O)cc1)C(N)=O)[C@@H](C)O [[Ahx^5-20]-hPP] (H-APLE[Ahx]AADLRRYINMLTRPRY-NH2) | > 7000 nM | > 1500 nM | 216 nM | > 1000 nM
2 | CC[C@H](C)[C@H](NC(=O)[C@H](Cc1ccc(O)cc1)NC(=O)[C@H](Cc1c[nH]cn1)NC(=O)[C@H](CCCNC(=N)N)NC(=O)CCCCCNC(=O)[C@H](CCCCN)NC(=O)[C@H](CO)NC(=O)[C@@H]1CCCN1C(=O)[C@@H](N)Cc1ccc(O)cc1)C(=O)N[C@@H](CC(N)=O)C(=O)N[C@@H](CC(C)C)C(=O)N[C@H](C(=O)N[C@H](C(=O)N[C@@H](CCCNC(=N)N)C(=O)N1CCC[C@H]1C(=O)N[C@@H](CCCNC(=N)N)C(=O)N[C@@H](Cc1ccc(O)cc1)C(N)=O)[C@@H](C)O)[C@@H](C)CC [[Ahx^5-24, ^P34]-NPY] (H-YPSK[Ahx]RHYINLITRPRY-NH2) | > 10000 nM | – | 514 nM | –
3 | CC[C@H](C)[C@H](NC(=O)[C@H](Cc1ccc(O)cc1)NC(=O)[C@H](Cc1cnc[nH]1)NC(=O)[C@H](CCCNC(=N)N)NC(=O)CCCCCNC(=O)[C@H](CCCCN)NC(=O)[C@H](CO)NC(=O)[C@@H]1CCCN1C(=O)[C@@H](N)Cc1ccc(O)cc1)C(=O)N[C@@H](CC(N)=O)C(=O)N[C@@H](CC(C)C)C(=O)N[C@H](C(=O)N[C@H](C(=O)N[C@@H](CCCNC(=N)N)C(=O)N[C@@H](CCC(N)=O)C(=O)N[C@@H](CCCNC(=N)N)C(=O)N[C@@H](Cc1ccc(O)cc1)C(N)=O)[C@@H](C)O)[C@@H](C)CC [[Ahx^5-24]-NPY] (H-YPSK[Ahx]RHYINLITRQRY-NH2) | 795 nM | > 1000 nM | 600 nM | 1.4 nM
4 | CC[C@H](C)[C@H](NC(=O)[C@H](Cc1ccc(O)cc1)NC(=O)[C@H](CCCNC(=N)N)NC(=O)[C@H](CCCNC(=N)N)NC(=O)CCCCCNC(=O)[C@H](CCC(=O)O)NC(=O)[C@H](CC(C)C)NC(=O)[C@@H]1CCCN1C(=O)[C@H](C)N)C(=O)N[C@@H](CC(N)=O)C(=O)N[C@@H](CCSC)C(=O)N[C@@H](CC(C)C)C(=O)N[C@H](C(=O)N[C@@H](CCCNC(=N)N)C(=O)N1CCC[C@H]1C(=O)N[C@@H](CCCNC(=N)N)C(=O)N[C@@H](Cc1ccc(O)cc1)C(N)=O)[C@@H](C)O [[Ahx^5-24]-hPP] (H-APLE[Ahx]RRYINMLTRPRY-NH2) | > 1000 nM | > 500 nM | 144 nM | > 1000 nM
5 | CC[C@H](C)[C@H](NC(=O)[C@H](Cc1ccc(O)cc1)NC(=O)[C@H](Cc1c[nH]cn1)NC(=O)[C@H](CCCNC(=N)N)NC(=O)[C@H](CC(C)C)NC(=O)[C@H](C)NC(=O)[C@H](CO)NC(=O)[C@H](Cc1ccc(O)cc1)NC(=O)CCCCCNC(=O)[C@H](CC(N)=O)NC(=O)[C@H](CC(=O)O)NC(=O)[C@@H]1CCCN1C(=O)[C@H](CCCCN)NC(=O)[C@H](CO)NC(=O)[C@@H]1CCCN1C(=O)[C@@H](N)Cc1ccc(O)cc1)C(=O)N[C@@H](CC(N)=O)C(=O)N[C@@H](CC(C)C)C(=O)N[C@H](C(=O)N[C@H](C(=O)N[C@@H](CCCNC(=N)N)C(=O)N[C@@H](CCC(N)=O)C(=O)N[C@@H](CCCNC(=N)N)C(=O)N[C@@H](Cc1ccc(O)cc1)C(N)=O)[C@@H](C)O)[C@@H](C)CC [[Ahx^8-20]-NPY] (H-YPSKPDN[Ahx]YSALRHYINLITRQRY-NH2) | 31 nM | – | 67 nM | –

Reference: article PMC6236447 (Molecules : A Journal of Synthetic Chemistry and Natural …, 2001)
